The compounds below were run against human IK (Homo sapiens (Human), UniProt O15554) (assay: Inhibition of IK channels expressed in HEK293 cells, thallium (I) sensitive FLIPR assay). Conditions: HEK293 cells over-expressing human IK; Tl+-sensitive BTC fluorescence (FLIPR); inhibition of activity induced by Ca2+-ionophore A23187.
Format: cell-based
Description: Following experiment determines the ability of a test compound to inhibit the activity of IK channels heterologously expressed in human HEK293 cells, and was used as the primary screen. The ability is determined as per cent inhibition of the activity induced by addition of the Ca^2+-ionophore A23187 (considered a maximum response). The activity is determined using a standard thallium (I) sensitive assay, e.g. using a fluorometric method in a Fluorescent Image Plate Reader (FLIPR) as described below in more detail.
Full concentration/response curves are generated and IC50 values are calculated based on the degree of inhibition of the maximum response. IC50 values (Inhibitory Concentration) represent the concentration of the test substance at which 50% of the maximum channel activity is inhibited.
Human HEK293 cells over-expressing human IK are grown in culture medium (DMEM supplemented with 10% foetal bovine serum), in polystyrene culture flasks ([…]) in a humidified atmosphere of 5% CO2 in air, at 37° C. Cell confluence should be 80-90% on day of plating. Cells are rinsed with 4 mL of PBS (phosphate buffered saline) and incubated 2 min with 1 mL of Trypsin-EDTA. After addition of 25 mL of culture medium cells are re-suspended by trituration with a 25 mL pipette.
The cells are seeded at a density of ˜3×10^6 cells/mL (25 μL/well) in black-walled, clear bottom, 384-well plates pre-treated with 0.01 g/L poly-D-lysin (20 μL/well for ≧30 min). Plated cells were allowed to proliferate for 24 h before loading with dye.
BTC-AM ([…], Invitrogen) is added 25.5 μl DMSO. The BTC-AM stock solution (2 mM) is diluted to a final concentration of 2 μM in […] assay buffer (in mM: 140 Na^+-gluconate, 2.5 K^+-gluconate, 6 Ca2^+-gluconate, 1 Mg^2+ gluconate, 5 glucose, 10 HEPES, pH 7.3) containing 2 μM ouabain, 2 mM amaranth and 1 mM tartrazine.
The culture medium is aspirated from the wells, and 25 μl of the BTC-AM loading solution are added to each well. The cells are incubated at 37° C. for 60 min.
After the loading period, the Tl^+-sensitive BTC fluorescence signal is measured over time using a FLIPR.
• Temperature: Room temp. • First addition: 12 μl test or control compound after 15 sec at a rate of 30 μL/sec and starting height of 20 μL • Second addition: 12 μL stimulus buffer (Cl^− free assay buffer supplemented with 1 mM Tl2SO4, 5 μM A23187 as well as the quenchers amaranth (2 mM) and tartrazine (1 mM)) is added after an additional 3 minutes at a rate of 30 μL/sec and starting height of 30 μL • Reading intervals: First sequence—3 sec×5, 2 sec×24 and 5 sec×25 • Second sequence—1 sec×5, 2 sec×24 and 5 sec×36
Addition plates (compound plate and stimulus plate) are placed in positions 2 and 3, respectively. Cell plates are placed in position 1 and run using the “IK blocker (EtOH wash, two additions)” program. FLIPR will then take the appropriate measurements in accordance with the interval settings above. Fluorescence obtained after stimulation is corrected for the mean basal fluorescence (in Cl^− free assay buffer).
Full concentration/response curves are generated and IC50 values (“Inhibitory Concentration”, i.e. the concentration of the test substance at which 50% of the maximum channel activity is inhibited) are calculated. The responses are calculated based on peak values.

IC50 [nM]	Compound
1100	Fc1ccccc1-c1ccccc1-c1nnnn1-c1ccccc1OC(F)F [Compound 58, 1-[2-(Difluoromethoxy)phenyl]-5-[2-(2-fluorophenyl)phenyl]-1H-1,2,3,4-tetrazole]
69	COc1ccccc1-c1ccccc1-c1nnnn1-c1ccccc1OC(F)F [Compound 59, 1-[2-(Difluoromethoxy)phenyl]-5-[2-(2-methoxyphenyl)phenyl]-1H-1,2,3,4-tetrazole]
210	N#Cc1ccccc1-n1nnnc1-c1ccccc1-c1ccccc1OC(F)F [Compound 62, 2-(5-{2-[2-(Difluoromethoxy)phenyl]phenyl}-1H-1,2,3,4-tetrazol-1-yl)benzonitrile]
890	c1ccc(-c2ccccc2-c2nnnn2-c2ccccc2)cc1 [Compound 65, 1-Phenyl-5-(2-phenylphenyl)-1H-1,2,3,4-tetrazole]

— patent US9556132B2, “Tetrazole derivatives and their use as potassium channel modulators” (SANIONA A/S, priority 2012, dated 2017)
